Data: ChEMBL document CHEMBL4842365, “Exploring the dNTP -binding site of HIV-1 reverse transcriptase for inhibitor design” (Eur J Med Chem, 2021)
Active and inactive are the calls of the source. No cut-off for these calls is given here.

Tests used:
Settings in all cases: time 25-30 min
[1] = molecular target: Human immunodeficiency virus type 1 reverse transcriptase (Human immunodeficiency virus 1) (UniProt Q72547); assay: Inhibition of HIV-1 reverse transcriptase using 5'-Cy5CAGGAAACAGCTATGAC/3'-GTCCTTTGTCGATACTGTTTTTTT-5' as primer/template at 5 mM preincubated for 20 min followed by dATP addition measured after 5 to 10 mins by gel electrophoresis analysis
[2] = molecular target: Human immunodeficiency virus type 1 reverse transcriptase (Human immunodeficiency virus 1) (UniProt Q72547); assay: Inhibition of HIV-1 reverse transcriptase using 5'-Cy5CAGGAAACAGCTATGAC/3'-GTCCTTTGTCGATACTGTTTTTTT-5' as primer/template at 10 mM preincubated for 20 min followed by dATP addition measured after 5 to 10 mins by gel electrophoresis analysis
[3] = molecular target: Human immunodeficiency virus type 1 reverse transcriptase (Human immunodeficiency virus 1) (UniProt Q72547); assay: Inhibition of HIV-1 reverse transcriptase using 5'-Cy5CAGGAAACAGCTATGAC/3'-GTCCTTTGTCGATACTGTTTTTTT-5' as primer/template at 1 mM preincubated for 20 min followed by dATP addition measured after 5 to 10 mins by gel electrophoresis analysis

## Nc1ncnc2c1ncn2CCCN[C@H](CP(=O)(O)O)C(=O)O
[1]
  inhibition: Active
[2]
  inhibition: Active
[3]
  inhibition: inactive

## Nc1ncnc2c1ncn2CCN[C@@H](CP(=O)(O)O)C(=O)O
[2]
  inhibition: inactive
[3]
  inhibition: inactive

## Nc1ncnc2c1ncn2CCN[C@@H](CO)C(=O)NP(=O)(O)O
[1]
  inhibition: Active
[2]
  inhibition: Active
[3]
  inhibition: inactive

## Nc1ncnc2c1ncn2CCN[C@H](CP(=O)(O)O)C(=O)O
[2]
  inhibition: inactive
[3]
  inhibition: inactive

## C[C@H](Cn1cnc2c(N)ncnc21)N(CCP(=O)(O)O)CC(=O)O
[1]
  inhibition: Active
[2]
  inhibition: Active
[3]
  inhibition: inactive

## Nc1ncnc2c1ncn2CCCOC(CP(=O)(O)O)C(=O)O (centres undefined)
[1]
  inhibition: Active
[2]
  inhibition: Active
[3]
  inhibition: inactive

## Nc1ncnc2c1ncn2CCOC(CP(=O)(O)O)C(=O)O (racemic)
[1]
  inhibition: Active
[2]
  inhibition: Active
[3]
  inhibition: inactive
